Laboratory results: PubChem BioAssay AID1963960 (Molecular Pharmacology Branch, DTP, NCI, 2024)

Tested on: MDA-MB-468 spheroids with HUVEC/MSC, viability
Test: Anticancer human tumor MDA-MB-468 cell line growth inhibition [PI3K];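 also: spheroids exposed to agents for seven days before readout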;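 as to viability, T/C: 100% = DMSO vehicle control viability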
Conditions: for viability, T/C: stronger effect = lower value
Excerpt: Combinatorial screen of targeted agents with the PI3K inhibitors inavolisib, alpelisib, duvelisib, and copanlisib in multi-cell type tumor spheroids
A high-throughput screen of multi-cell type tumor spheroids was designed to identify active combinations of targeted small molecules and PI3K pathway inhibitors. Complex spheroids include a stromal component modeled by human endothelial cells (HUVEC) and fibroblasts modeled by human mesenchymal stem cells (MSCs). The concentration ranges selected for each drug and investigational agent were based upon clinically achievable concentrations if the clinical Cmax of the agent was known.
Compounds. The drugs and investigational agents: inavolisib (NSC800729), alpelisib (NSC765974), duvelisib (NSC772469), copanlisib (NSC816437), ipatasertib (NSC767898), afuresertib (NSC778305), talazoparib (NSC767125), sapanisertib (NSC764658), selumetinib (NSC741078), tovorafenib (DAY101, NSC766906), vemurafenib (NSC761431), ravoxertinib (NSC781343), sotorasib (NSC818433), MRTX1133 (NSC 836407), abemaciclib (NSC 768073), palbociclib (NSC758247), venetoclax (NSC 766270), SY5609 (NSC837396), enzalutamide (NSC755605), and darolutamide (NSC825331), were obtained from the National Cancer Institute (NCI) Developmental Therapeutics Program Chemical Repository. The FDA-approved anticancer drug set is available from the NCI Developmental Therapeutics Program. […] The stock solutions were prepared in dimethyl sulfoxide (DMSO, Sigma-Aldrich, St. Louis, MO, cat. D2650) at 800-fold the tested concentration and stored at -70 degrees C prior to their use. All drugs and investigational agents were tested over a range starting from a high concentration at or near the clinical Cmax and decreasing in half-log increments. If the clinical Cmax for an agent had not been determined, the highest concentration tested was 10 microM.
Cell Culture. All cells were maintained in an incubator at 37 degrees C and 5% CO2 with 95% humidity. The PDC lines were cultured according to standard operating procedures established by the NCI PDMR (https://pdmr.cancer.gov/sops/default.htm). All PDCs were thawed and cultured in Matrigel-coated flasks prepared with a working solution of 1X Ham's F-12 nutrient mix, without supplementation (Invitrogen, Waltham, MA, cat. 11765054), 100 U/mL penicillin-streptomycin (Invitrogen, cat. 15140122), and 2.5% Matrigel (Corning Inc., Corning, NY, cat. 354248) for the first three passages. The 354836-022-R-J1-PDC, 475296-252-R-J1-PDC, and 997726-040-R-J2-PDC lines were cultured in 6A media, which includes advanced DMEM/F-12 (Thermo Fisher Scientific, cat. 12634028), 10 mM HEPES (Thermo Fisher Scientific, cat. 15630080), 1X GlutaMAX supplement (Thermo Fisher Scientific, cat. 35050061), 0.1 mg/mL primocin (InvivoGen, San Diego, CA, cat. ant-pm-2), 10% defined fetal bovine serum, heat inactivated (HyClone Laboratories Inc., Logan, UT, cat. SH30070.03HI), 50% L-WRN conditioned media (ATCC, cat. CRL-3276), 1.25 mM N-Acetyl-L-cysteine (Sigma-Aldrich, cat. A9165), 10 mM nicotinamide (Sigma-Aldrich, cat. N0636), 1X B-27 supplement (Thermo Fisher Scientific, cat. 17504044), 1X N-2 supplement (Thermo Fisher Scientific, cat. 17502048), and 10 microM Y-27632 dihydrochloride (Tocris Bioscience, Bristol, United Kingdom, cat. 1254). The 624824-186-R-J2-PDC line was cultured in 6C/Colon 1B media, which includes all 6A media components plus 50 ng/mL human EGF recombinant protein (Thermo Fisher Scientific, cat. PHG0311). […]

[1] = curve of first compound, second compound 0.0316 µM
[2] = curve of first compound, second compound 0.1 µM
[3] = curve of first compound, second compound 0.316 µM
[4] = curve of first compound, second compound 1 µM
[5] = curve of first compound, second compound 3.16 µM
[6] = curve of first compound, second compound 10 µM
[7] = second compound 0.0316 µM, first compound 0.0316 µM
[8] = second compound 0.0316 µM, first compound 0.1 µM
[9] = second compound 0.0316 µM, first compound 0.316 µM
[10] = second compound 0.0316 µM, first compound 1 µM
[11] = second compound 0.0316 µM, first compound 3.16 µM
[12] = second compound 0.0316 µM, first compound 10 µM
[13] = second compound 0.1 µM, first compound 0.0316 µM
[14] = second compound 0.1 µM, first compound 0.1 µM
[15] = second compound 0.1 µM, first compound 0.316 µM
[16] = second compound 0.1 µM, first compound 1 µM
[17] = second compound 0.1 µM, first compound 3.16 µM
[18] = second compound 0.1 µM, first compound 10 µM
[19] = second compound 0.316 µM, first compound 0.0316 µM
[20] = second compound 0.316 µM, first compound 0.1 µM
[21] = second compound 0.316 µM, first compound 0.316 µM
[22] = second compound 0.316 µM, first compound 1 µM
[23] = second compound 0.316 µM, first compound 3.16 µM
[24] = second compound 0.316 µM, first compound 10 µM
[25] = second compound 1 µM, first compound 0.0316 µM
[26] = second compound 1 µM, first compound 0.1 µM
[27] = second compound 1 µM, first compound 0.316 µM
[28] = second compound 1 µM, first compound 1 µM
[29] = second compound 1 µM, first compound 3.16 µM
[30] = second compound 1 µM, first compound 10 µM
[31] = second compound 3.16 µM, first compound 0.0316 µM
[32] = second compound 3.16 µM, first compound 0.1 µM
[33] = second compound 3.16 µM, first compound 0.316 µM
[34] = second compound 3.16 µM, first compound 1 µM
[35] = second compound 3.16 µM, first compound 3.16 µM
[36] = second compound 3.16 µM, first compound 10 µM
[37] = second compound 10 µM, first compound 0.0316 µM
[38] = second compound 10 µM, first compound 0.1 µM
[39] = second compound 10 µM, first compound 0.316 µM
[40] = second compound 10 µM, first compound 1 µM
[41] = second compound 10 µM, first compound 3.16 µM
[42] = second compound 10 µM, first compound 10 µM

Cn1nccc1Nc1nccc(-c2ccn(C(CO)c3ccc(Cl)c(F)c3)c(=O)c2)n1 (stereo unspecified) + Cc1nc(NC(=O)N2CCCC2C(N)=O)sc1-c1ccnc(C(C)(C)C(F)(F)F)c1
IC50 [1]: > 10000 nM | IC50 [2]: > 10000 nM | IC50 [3]: > 10000 nM | IC50 [4]: > 10000 nM | IC50 [5]: 1600 nM | IC50 [6]: < 31.6 nM | viability, T/C [7]: 88.7% | viability, T/C [8]: 85.4% | viability, T/C [9]: 84% | viability, T/C [10]: 116% | viability, T/C [11]: 107% | viability, T/C [12]: 63.3% | viability, T/C [13]: 92.2% | viability, T/C [14]: 94.9% | viability, T/C [15]: 81.7% | viability, T/C [16]: 93.3% | viability, T/C [17]: 113% | viability, T/C [18]: 53.8% | viability, T/C [19]: 103% | viability, T/C [20]: 112% | viability, T/C [21]: 95.9% | viability, T/C [22]: 109% | viability, T/C [23]: 61.1% | viability, T/C [24]: 63.8% | viability, T/C [25]: 81.3% | viability, T/C [26]: 75.6% | viability, T/C [27]: 80.4% | viability, T/C [28]: 67.3% | viability, T/C [29]: 62.9% | viability, T/C [30]: 53.9% | viability, T/C [31]: 82.3% | viability, T/C [32]: 64.1% | viability, T/C [33]: 63.4% | viability, T/C [34]: 59.7% | viability, T/C [35]: 42.3% | viability, T/C [36]: 32.3% | viability, T/C [37]: 39.6% | viability, T/C [38]: 24.8% | viability, T/C [39]: 29.6% | viability, T/C [40]: 20.2% | viability, T/C [41]: 17.6% | viability, T/C [42]: 14.5%

Cn1ncc(Cl)c1-c1cc(C(=O)NC(CN)Cc2cccc(F)c2)sc1Cl (stereo unspecified) + Cc1nc(NC(=O)N2CCCC2C(N)=O)sc1-c1ccnc(C(C)(C)C(F)(F)F)c1
IC50 [1]: 327 nM | IC50 [2]: 272 nM | IC50 [3]: 289 nM | IC50 [4]: 221 nM | IC50 [5]: 89.5 nM | IC50 [6]: < 31.6 nM | viability, T/C [7]: 84.6% | viability, T/C [8]: 78.8% | viability, T/C [9]: 37.8% | viability, T/C [10]: 33.1% | viability, T/C [11]: 29.8% | viability, T/C [12]: 0.69% | viability, T/C [13]: 78.1% | viability, T/C [14]: 62.4% | viability, T/C [15]: 41.2% | viability, T/C [16]: 36% | viability, T/C [17]: 27.5% | viability, T/C [18]: 1.98% | viability, T/C [19]: 80.2% | viability, T/C [20]: 76.9% | viability, T/C [21]: 40.1% | viability, T/C [22]: 30.1% | viability, T/C [23]: 19.7% | viability, T/C [24]: 3.34% | viability, T/C [25]: 91.3% | viability, T/C [26]: 68% | viability, T/C [27]: 39.3% | viability, T/C [28]: 26.1% | viability, T/C [29]: 19.3% | viability, T/C [30]: 4.09% | viability, T/C [31]: 66.7% | viability, T/C [32]: 43.6% | viability, T/C [33]: 37.4% | viability, T/C [34]: 20.8% | viability, T/C [35]: 14.1% | viability, T/C [36]: 2.32% | viability, T/C [37]: 38.3% | viability, T/C [38]: 20.8% | viability, T/C [39]: 20.6% | viability, T/C [40]: 14.1% | viability, T/C [41]: 7.72% | viability, T/C [42]: 0.4%

Cn1cnc2c(F)c(Nc3ccc(Br)cc3Cl)c(C(=O)NOCCO)cc21
viability, T/C (compound 0.00949 µM): 82.8% [middle of 4 runs] | viability, T/C (compound 0.03 µM): 83.3% [middle of 4 runs] | viability, T/C (compound 0.0949 µM): 86.8% [middle of 4 runs] | viability, T/C (compound 0.3 µM): 87.3% [middle of 4 runs] | viability, T/C (compound 0.949 µM): 88.8% [middle of 4 runs] | viability, T/C (compound 3 µM): 64.7% [middle of 4 runs] | IC50 (curve of compound): > 3000 nM
